Measurements reported in patent publication US5763577A, “Substituted tetra- and pentapeptide inhibitors of protein: farnesyl transferase” (Warner-Lambert Company, priority 1996, dated 1998).
Where a name gives a salt, the structure may show the parent alone. Non-standard residues stand in square brackets, D forms with d. Residues, ends and D or L forms follow the SMILES beside them. *: point of attachment. Cbz = O=C(OCc1ccccc1)*; Bn = c1ccc(C*)cc1

Biological target: T1, rat brain farnesyl protein transferase (Rattus norvegicus, UniProt Q02293+Q04631)
T1 construct: 40-fold purified rat brain farnesyl protein transferase; from tissue; host or cells: rat brain
Test: PFT inhibitory activity assay (3H-farnesyl pyrophosphate, biotinyl peptide, streptavidin beads)
Assay type: biochemical
Settings: 30 mM potassium phosphate buffer pH 7.4; FPP 0.12 μM; (biotinyl)-Ahe-Tyr-Lys-Cys-Val-Ile-Met 0.1 μM; 37° C, 30 minutes
Procedure: The PFT inhibitory activity of compounds of Formula I was assayed in 30 mM potassium phosphate buffer, pH 7.4, containing 7 mM DTT, 1.2 MM MgCl2, 0.1 mM leupeptin, 0.1 mM pepstatin, and 0.2 mM phenylmethylsulfonyl fluoride. Assays were performed in 96 well plates (Wallec) and employed solutions composed of varying concentrations of a compound of Formula I in 100% DMSO. Upon addition of both substrates, radiolabeled farnesyl pyrophosphate ([1-^3 H], specific activity 15-30 Ci/mmol, final concentration 0.12 μM) and (biotinyl)-Ahe-Tyr-Lys-Cys-Val-Ile-Met peptide (final concentration 0.1 μM), the Seq ID NO:59 enzyme reaction was started by addition of 40-fold purified rat brain farnesyl protein transferase. After incubation at 37° C for 30 minutes, the reaction was terminated by diluting the reaction 2.5-fold with a stop buffer containing 1.5M magnesium acetate, 0.2M H3 PO4, 0.5% BSA, and strepavidin beads (Amersham) at a concentration of 1.3 mg/mL. After allowing the plate to settle for 30 minutes at room temperature, radioactivity was quantitated on a microBeta counter (model 1450, Wallec).

SMILES | IC50
C[C@@H](NC(=O)[C@H](COCc1ccccc1)NC(=O)[C@H](Cc1ccc(OCc2ccccc2)cc1)NC(=O)[C@H](Cc1c[nH]cn1)NC(=O)OCc1ccccc1)C(=O)O [Cbz--His--Tyr(OBn)--Ser(OBn)--DAla--OH, N-[N-[N-[N-[(Phenylmethoxy)carbonyl]-L-histidyl]-O-(phenylmethyl)-L-tyrosyl]-O-(phenylmethyl)-L-seryl]-D-alanine, monohydrochloride] (Cbz-HY(Bn)S(Bn)[dA]-OH) | 404 nM
COC(=O)[C@@H](C)NC(=O)[C@H](COCc1ccccc1)NC(=O)[C@H](Cc1ccc(OCc2ccccc2)cc1)NC(=O)[C@H](Cc1c[nH]cn1)NC(=O)OCc1ccccc1 [Cbz--His--Tyr(OBn)--Ser(OBn)--DAla--OM2, N-[N-[N-[N-[(Phenylmethoxy)carbonyl]-L-histidyl]-O-(phenylmethyl)-L-tyrosyl]-O-(phenylmethyl)-L-seryl]-D-alanine, methyl ester] (Cbz-HY(Bn)S(Bn)[dA]-OMe) | 142 nM
